Holding throughout (test): biochemical
What all share (set-up): Eurofins KinaseProfiler full panel at Km ATP, residual kinase activity (%) relative to DMSO

Assay [1] addresses HIPK3(h) (Homo sapiens, UniProt Q9H422). The method, then:
(§1) Eurofins performed a “Full KP Panel [Km ATP], KinaseProfile” which contains 429 radiometric kinase activity assays. The remaining kinase activity (%) was determined after treatment with the compounds at a concentration of 10 µM (Cfr. supporting information). Since we could not confirm the interaction between Spautin-1 analogues and USP13, a kinase screening was performed using a set of four compounds (Spautin-1 and three analogues) to discover off-targets and identify kinases that are potentially responsible for the reduction in cell viability observed in our screen (Table 2). The KINOMEscan from Eurofins was performed (see Table S1). This screen consists of a competitive binding assay in which the DNA-tagged kinase is incubated with one of the compounds in the presence of immobilized active site binding ligands. Binding of the compounds to the kinase hampers the binding of the kinase to the ligands and this inhibition was quantified by qPCR. The residual kinase activity, which represents the percentage of kinase attached to the immobilized ligands, was determined for 428 kinases at a standard screening concentration of 10 µM of the compounds dissolved in DMSO [61].

Assay [2] has as its target T1, CDKL2(h) (Homo sapiens, UniProt Q92772).
T1 sequence (Q92772 1-493): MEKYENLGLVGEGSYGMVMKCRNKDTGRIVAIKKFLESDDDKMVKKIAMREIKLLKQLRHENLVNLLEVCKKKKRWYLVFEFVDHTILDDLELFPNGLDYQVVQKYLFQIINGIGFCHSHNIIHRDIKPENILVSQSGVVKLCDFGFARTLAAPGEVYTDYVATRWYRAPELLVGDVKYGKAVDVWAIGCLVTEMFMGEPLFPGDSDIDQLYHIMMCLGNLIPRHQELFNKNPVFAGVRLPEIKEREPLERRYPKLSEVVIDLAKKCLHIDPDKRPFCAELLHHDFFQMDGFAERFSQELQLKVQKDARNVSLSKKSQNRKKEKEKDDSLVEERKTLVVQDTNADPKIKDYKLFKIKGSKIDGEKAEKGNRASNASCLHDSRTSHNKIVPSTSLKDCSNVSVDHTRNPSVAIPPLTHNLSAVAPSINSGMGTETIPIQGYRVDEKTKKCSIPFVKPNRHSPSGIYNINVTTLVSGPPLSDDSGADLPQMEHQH
The protocol: as §1

The target of assay [3] is T2, LKB1(h) (Homo sapiens, UniProt Q15831).
T2 construct: gene STK11
T2 sequence (Q15831 1-433): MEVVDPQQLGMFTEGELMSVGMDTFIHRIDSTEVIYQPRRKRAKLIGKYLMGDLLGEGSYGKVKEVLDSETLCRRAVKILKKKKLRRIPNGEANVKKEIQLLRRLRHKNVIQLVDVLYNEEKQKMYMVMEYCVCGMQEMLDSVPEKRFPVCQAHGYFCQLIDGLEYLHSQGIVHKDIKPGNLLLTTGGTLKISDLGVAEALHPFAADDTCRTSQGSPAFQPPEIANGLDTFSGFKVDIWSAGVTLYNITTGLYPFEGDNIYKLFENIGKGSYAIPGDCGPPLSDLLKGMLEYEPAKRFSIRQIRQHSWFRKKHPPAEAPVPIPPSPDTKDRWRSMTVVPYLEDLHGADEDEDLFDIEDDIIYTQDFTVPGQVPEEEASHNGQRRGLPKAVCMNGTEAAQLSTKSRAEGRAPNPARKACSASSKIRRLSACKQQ
T2 sequence (Q7RTN6 1-431 partner): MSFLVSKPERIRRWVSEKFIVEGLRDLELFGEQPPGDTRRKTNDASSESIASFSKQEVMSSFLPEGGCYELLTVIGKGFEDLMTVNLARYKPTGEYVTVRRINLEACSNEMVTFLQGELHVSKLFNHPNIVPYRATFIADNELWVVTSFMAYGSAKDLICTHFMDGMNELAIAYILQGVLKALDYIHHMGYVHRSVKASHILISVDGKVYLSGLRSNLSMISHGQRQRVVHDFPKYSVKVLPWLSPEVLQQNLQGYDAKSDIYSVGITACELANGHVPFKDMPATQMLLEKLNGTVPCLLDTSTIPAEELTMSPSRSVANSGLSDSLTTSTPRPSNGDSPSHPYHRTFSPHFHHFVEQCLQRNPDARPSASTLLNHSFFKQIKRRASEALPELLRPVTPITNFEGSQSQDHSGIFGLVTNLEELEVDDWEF
T2 sequence (Q9Y376 1-341 partner): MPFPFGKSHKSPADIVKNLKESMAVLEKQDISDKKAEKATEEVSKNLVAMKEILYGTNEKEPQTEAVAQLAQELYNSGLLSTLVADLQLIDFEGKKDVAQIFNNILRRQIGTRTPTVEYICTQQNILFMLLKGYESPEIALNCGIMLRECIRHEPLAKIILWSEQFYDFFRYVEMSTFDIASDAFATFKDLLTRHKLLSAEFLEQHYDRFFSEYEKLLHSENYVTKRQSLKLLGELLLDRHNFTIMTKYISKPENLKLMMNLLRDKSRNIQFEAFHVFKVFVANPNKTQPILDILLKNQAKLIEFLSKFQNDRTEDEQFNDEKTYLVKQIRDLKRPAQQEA
The protocol: as §1

[4] abbreviates: read-out: Residual activity (%) 5at.
Setting [5] is: read-out: Residual activity (%) 5ay.
Where [6] appears, read: read-out: Residual activity (%) 5as.
Setting [7] is: read-out: Residual activity (%) Spautin-1 5aa.

Structures are written as SMILES. Where two headings read alike, the source gives them in different places.

This note sets out measurements from article PMC7827406, “Structure–Activity Relationship (SAR) Study of Spautin-1 to Entail the Discovery of Novel NEK4 Inhibitors” (International Journal of Molecular Sciences, 2021).

HIPK3(h), sequence (Q9H422 whole entry): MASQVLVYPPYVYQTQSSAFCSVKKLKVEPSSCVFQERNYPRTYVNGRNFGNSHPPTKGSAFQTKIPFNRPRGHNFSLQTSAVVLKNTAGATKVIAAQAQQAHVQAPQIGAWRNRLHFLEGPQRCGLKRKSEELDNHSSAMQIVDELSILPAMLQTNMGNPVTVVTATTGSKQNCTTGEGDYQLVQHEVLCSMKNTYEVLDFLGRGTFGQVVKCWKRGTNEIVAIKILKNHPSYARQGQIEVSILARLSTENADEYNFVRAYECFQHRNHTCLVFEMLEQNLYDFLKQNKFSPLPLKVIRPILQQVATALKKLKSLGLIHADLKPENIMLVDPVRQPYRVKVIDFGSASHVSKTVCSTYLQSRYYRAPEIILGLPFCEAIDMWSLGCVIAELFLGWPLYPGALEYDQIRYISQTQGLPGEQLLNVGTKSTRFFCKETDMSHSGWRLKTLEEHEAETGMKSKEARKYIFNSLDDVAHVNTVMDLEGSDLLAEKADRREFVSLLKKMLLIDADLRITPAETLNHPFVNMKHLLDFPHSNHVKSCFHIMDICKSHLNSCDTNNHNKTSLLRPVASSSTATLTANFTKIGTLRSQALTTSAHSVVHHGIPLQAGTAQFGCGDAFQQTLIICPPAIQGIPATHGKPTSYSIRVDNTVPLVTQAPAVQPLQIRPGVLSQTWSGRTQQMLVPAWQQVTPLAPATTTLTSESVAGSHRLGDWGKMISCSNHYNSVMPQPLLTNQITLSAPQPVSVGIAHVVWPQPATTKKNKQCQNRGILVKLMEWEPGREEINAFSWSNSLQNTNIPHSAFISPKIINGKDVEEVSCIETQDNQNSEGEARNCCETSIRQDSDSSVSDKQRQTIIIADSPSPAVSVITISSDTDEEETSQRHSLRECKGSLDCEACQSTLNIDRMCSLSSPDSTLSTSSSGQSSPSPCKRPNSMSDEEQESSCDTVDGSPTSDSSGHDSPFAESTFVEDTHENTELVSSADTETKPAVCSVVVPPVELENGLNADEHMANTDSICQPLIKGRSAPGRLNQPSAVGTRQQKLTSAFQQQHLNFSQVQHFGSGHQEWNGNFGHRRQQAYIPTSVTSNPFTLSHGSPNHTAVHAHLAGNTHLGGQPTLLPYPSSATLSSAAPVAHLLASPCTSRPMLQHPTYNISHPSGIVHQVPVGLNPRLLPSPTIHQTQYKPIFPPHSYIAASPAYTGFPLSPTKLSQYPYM

Turning to `Fc1ccc2ncnc(NCCc3ccc(Cl)cc3)c2c1` [5at, N-[2-(4-Chlorophenyl)Ethyl]-6-Fluoro-4-Quinazolinamine], the remaining activity at 10 µM in assay [1] (setting [4]) was 95%; in assay [2] (setting [4]), 67%; in assay [3] (setting [4]), 73%.

In the case of `COc1ccc2ncnc(Nc3cccc(F)c3)c2c1` [5ay, N-(3-Fluorophenyl)-6-Methoxy-4-Quinazolinamine], the figures for the remaining activity at 10 µM in assay [1] (setting [5]), in assay [2] (setting [5]) and in assay [3] (setting [5]) were 84%, 67% and 100%, respectively.

Consider `Fc1ccc(CCNc2ncnc3ccc(F)cc23)cc1` [5as, 6-Fluoro-N-[2-(4-Fluorophenyl)Ethyl]-4-Quinazolinamine], for which the remaining activity at 10 µM is 98% in assay [1] (setting [6]), 103% in assay [2] (setting [6]) and 81% in assay [3] (setting [6]).

In the case of `Fc1ccc(CNc2ncnc3ccc(F)cc23)cc1` [5aa, 6-Fluoro-N-(4-fluorobenzyl)-4-Quinazolinamine], the remaining activity at 10 µM is 93% in assay [1] (setting [7]), 87% in assay [2] (setting [7]) and 86% in assay [3] (setting [7]).
